pEC50: −log10 of the molar value. Where a name gives a salt, the structure may show the parent alone.

This note sets out measurements from patent publication US9062028B2, “Bicyclic nitrogen containing heteroaryl TGR5 receptor modulators” (Bristol-Myers Squibb Company, priority 2011, dated 2015).

In the assay the target is T1, recombinant human TGR5 (Homo sapiens, UniProt Q8TDU6).
T1 construct: expressed in transfected cells
T1 sequence (Q8TDU6 1-330): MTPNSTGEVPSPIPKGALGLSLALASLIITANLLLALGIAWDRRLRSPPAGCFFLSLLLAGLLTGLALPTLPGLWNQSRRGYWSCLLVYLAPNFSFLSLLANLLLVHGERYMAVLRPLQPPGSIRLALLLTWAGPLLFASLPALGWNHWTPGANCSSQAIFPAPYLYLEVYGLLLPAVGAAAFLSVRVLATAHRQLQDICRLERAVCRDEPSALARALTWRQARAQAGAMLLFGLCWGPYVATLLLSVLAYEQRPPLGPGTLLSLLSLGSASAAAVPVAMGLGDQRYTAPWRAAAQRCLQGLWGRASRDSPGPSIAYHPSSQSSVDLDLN
As to the kind of experiment: cAMP assay (cAMP accumulation, HTRF) in CHOK1 cells stably expressing TGR5. The format is cell-based. The conditions noted are these: CHOK1 cells stably expressing human TGR5, 30 minutes at RT, 1% DMSO. The method in brief: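 CHOK1 cells stably expressing TGR5 (text also calls it chimeric human/mouse), 0.4-0.5×10^6 cells/mL in PBS with Ca/Mg and 0.1 mM IBMX, compound 30 min at RT, 1% DMSO. cAMP by HTRF 665/620 interpolated to a standard curve; EC50 from 4-parameter fit as half-maximal increase.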
For `Cc1cccc(OCCCC(=O)N2C[C@@H]3C[C@@H]3c3c(-c4cnn(Cc5cccc(C(=O)N[C@H]6CCOC6=O)c5)c4)cccc32)c1C` [Example 891, 3-((4-((1aR,7bS)-3-(4-(2,3-Dimethylphenoxy)butanoyl)-1a,2,3,7b-tetrahydro-1H-cyclopropa[c]quinolin-7-yl)-1H-pyrazol-1-yl)methyl)-N-((S)-2-oxotetrahydrofuran-3-yl)benzamide], the pEC50 was 7.59.
Then `Cc1cccc(OCCCC(=O)N2CCSc3c(-c4cnn(Cc5c(F)cc(C(=O)NCC(=O)O)cc5Cl)c4)cccc32)c1C` [Example 576, 2-(3-Chloro-4-((4-(4-(4-(2,3-dimethylphenoxy)butanoyl)-3,4-dihydro-2H-benzo[b][1,4]thiazin-8-yl)-1H-pyrazol-1-yl)methyl)-5-fluorobenzamido) acetic acid], with 7.32; and `Cc1cccc(OCCCC(=O)N2CCOc3c(-c4cnn(Cc5cccc(C(=O)N[C@@H](CC(=O)O)C(=O)O)c5Cl)c4)cccc32)c1C` [Example 624, (S)-2-(2-Chloro-3-((4-(4-(4-(2,3-dimethylphenoxy)butanoyl)-3,4-dihydro-2H-benzo[b][1,4]oxazin-8-yl)-1H-pyrazol-1-yl)methyl)benzamido)succinic acid], with 5.86.
Under `Cc1cccc(OCCCC(=O)N2C[C@@H]3C[C@@H]3c3c(-c4cnn(Cc5cccc(NC(=O)NCCC(=O)O)c5)c4)cccc32)c1C` (single isomer, unassigned) [Example 248] stands 7.25.
Under `Cc1cccc(OCCCC(=O)N2CCCc3c(-c4cnn(Cc5cccc(C(=O)N6CCC(CO)CC6)c5)c4)cccc32)c1C` [Example 836, 4-(2,3-Dimethylphenoxy)-1-(5-(1-(3-(4-(hydroxymethyl)piperidine-1-carbonyl)benzyl)-1H-pyrazol-4-yl)-3,4-dihydroquinolin-1(2H)-yl)butan-1-one] stands 6.76; under `Cc1c(Cl)cccc1OCCCC(=O)N1CCSc2c(-c3cnn(Cc4c(F)cc(C(=O)NCCC(=O)O)cc4Cl)c3)cccc21` [Example 577, 3-(3-Chloro-4-((4-(4-(4-(3-chloro-2-methylphenoxy)butanoyl)-3,4-dihydro-2H-benzo[b][1,4]thiazin-8-yl)-1H-pyrazol-1-yl)methyl)-5-fluorobenzamido)propanoic acid], 7.51.
With `Cc1c(Cl)cccc1OCCCC(=O)N1CCSc2c(-c3cnn(Cc4c(F)cc(C(=O)NCCS(=O)(=O)O)cc4Cl)c3)cccc21` [Example 574, 2-(3-Chloro-4-((4-(4-(4-(3-chloro-2-methylphenoxy)butanoyl)-3,4-dihydro-2H-benzo[b][1,4]thiazin-8-yl)-1H-pyrazol-1-yl)methyl)-5-fluorobenzamido) ethanesulfonic acid], the negative-log EC50 (pEC50) is 7.64.
Then `Cc1cccc(OCCCC(=O)N2CCSc3c(-c4cnn(Cc5cccc(C(=O)NCCO)c5)c4)cccc32)c1C` [Example 600, 3-((4-(4-(4-(2,3-Dimethylphenoxy)butanoyl)-3,4-dihydro-2H-benzo[b][1,4]thiazin-8-yl)-1H-pyrazol-1-yl)methyl)-N-(2-hydroxyethyl) benzamide], with 7.38; and `Cc1cccc(OCCCC(=O)N2CCCc3c(-c4cccc(COC(=O)NCC(C)(C)C(=O)O)c4)cccc32)c1C` [Example 257, 3-((3-(1-(4-(2,3-Dimethylphenoxy)butanoyl)-1,2,3,4-tetrahydroquinolin-5-yl)benzyloxy)carbonylamino)-2,2-dimethylpropanoic acid], with 6.17.
Then `Cc1cccc(OCCCC(=O)N2CC3CC3c3c(-c4cnn(Cc5c(F)cc(C(=O)NCCC(=O)O)cc5Cl)c4)cccc32)c1C` (stereo not shown) [Example 69E, 3-(3-Chloro-4-((4-(3-(4-(2,3-dimethylphenoxy)butanoyl)-1a,2,3,7b-tetrahydro-1H-cyclopropa[c]quinolin-7-yl)-1H-pyrazol-1-yl)methyl)-5-fluorobenzamido)propanoic acid], with 7.35; and `Cc1cccc(OCCCC(=O)N2CCCc3c(-c4cnn(Cc5cccc(C(=O)N[C@@H](C)C(=O)O)c5)c4)cccc32)c1C` [Example 864, (S)-2-(3-((4-(1-(4-(2,3-Dimethylphenoxy)butanoyl)-1,2,3,4-tetrahydroquinolin-5-yl)-1H-pyrazol-1-yl)methyl)benzamido)propanoic acid], with 6.71.
Then `Cc1cccc(OCCCC(=O)N2CCCc3c(-c4cnn(Cc5cncc(C(=O)O)c5)c4)cccc32)c1C` [Example 359, 5-((4-(1-(4-(2,3-Dimethylphenoxy)butanoyl)-1,2,3,4-tetrahydroquinolin-5-yl)-1H-pyrazol-1-yl)methyl) nicotinic acid, TFA salt], with 5.78; and `Cc1cccc(OCCCC(=O)N2CCCc3c(-c4cnn(CC5(CNC(=O)NCCS(=O)(=O)O)CC5)c4)cccc32)c1C` [Example 69J, 2-(3-((1-((4-(1-(4-(2,3-Dimethylphenoxy)butanoyl)-1,2,3,4-tetrahydroquinolin-5-yl)-1H-pyrazol-1-yl)methyl)cyclopropyl)methyl)ureido)ethanesulfonic acid], with 5.30.
As for `Cc1c(Cl)cccc1OCCCC(=O)N1CCSc2c(-c3cnn(Cc4cccc(C(=O)NCS(=O)(=O)O)c4)c3)cccc21` [Example 565, (3-((4-(4-(4-(3-Chloro-2-methylphenoxy)butanoyl)-3,4-dihydro-2H-benzo[b][1,4]thiazin-8-yl)-1H-pyrazol-1-yl)methyl)benzamido) methanesulfonic acid], the pEC50 is 7.32.
Take `Cc1cccc(OCCCC(=O)N2CCCOc3c(-c4cnn(Cc5cccc(N(C)C(=O)NCS(=O)(=O)O)c5)c4)cccc32)c1C` [Example 526, (3-(3-((4-(5-(4-(2,3-Dimethylphenoxy)butanoyl)-2,3,4,5-tetrahydrobenzo [b][1,4]oxazepin-9-yl)-1H-pyrazol-1-yl)methyl)phenyl)-3-methylureido) methanesulfonic acid]: the pEC50 was 5.82.
Turning to `Cc1cccc(OCCCC(=O)N2CCCc3c(-c4cccc(COC(=O)N[C@@H](Cc5cncn5C)C(=O)O)c4)cccc32)c1C` [Example 316, (S)-2-((3-(1-(4-(2,3-Dimethylphenoxy)butanoyl)-1,2,3,4-tetrahydroquinolin-5-yl)benzyloxy)carbonylamino)-3-(1-methyl-1H-imidazol-5-yl) propanoic acid], the pEC50 was 6.20.
Under `Cc1c(Cl)cccc1OCCCC(=O)N1CCCOc2c(-c3cnn(Cc4cccc(NS(=O)(=O)c5cccc(C(=O)O)c5)c4)c3)cccc21` [Example 506, 3-(N-(3-((4-(5-(4-(3-Chloro-2-methylphenoxy)butanoyl)-2,3,4,5-tetrahydrobenzo [b][1,4]oxazepin-9-yl)-1H-pyrazol-1-yl)methyl)phenyl)sulfamoyl) benzoic acid] stands 5.79; under `Cc1cccc(OCCCC(=O)N2CC3CC3c3c(-c4cnn(Cc5cccc(N)c5)c4)cccc32)c1C` (stereo not shown) [Example 69G, 1-(7-(1-(3-Aminobenzyl)-1H-pyrazol-4-yl)-1a,2-dihydro-1H-cyclopropa[c]quinolin-3(7bH)-yl)-4-(2,3-dimethylphenoxy)butan-1-one], 7.29.
Under `Cc1cccc(OCCCC(=O)N2CCCc3c(-c4cnn(Cc5cccc(NC(=O)NCC(=O)O)c5)c4)cccc32)c1C` [Example 83, 2-(3-(3-((4-(1-(4-(2,3-Dimethylphenoxy)butanoyl)-1,2,3,4-tetrahydroquinolin-5-yl)-1H-pyrazol-1-yl)methyl)phenyl)ureido)acetic acid] stands 6.97.
